Source: patent US12215093B2, “Bicyclic carboxamides and methods of use thereof” (Tempest Therapeutics, Inc., priority 2018, dated 2025)

Legend:
[1] = molecular target: EP2 (Homo sapiens, UniProt P43116); test: cell-based;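 note: functional calcium flux assay in stably transfected HEK293 cells expressing EP2 coupled via a promiscuous G protein, clytin luminescence read as area under the curve, 30 min compound preincubation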
Method: Each receptor subtype has an additional promiscuous G protein added in order to couple the aforementioned receptor to the calcium signaling pathway. The parental cell line used also expresses a novel variant of clytin, a calcium-activated photo-protein, to enable sensitive luminescent detection. Briefly, cells were plated at 50,000 cells-per-well in black, clear bottom 96-well plates. The plated cells were allowed to sit at room temperature for 30 min prior to transferring to a humidified, 37° C., 5% CO2 incubator for 18 to 24 h. Assay buffer (HBSS with 20 mM HEPES) and loading buffer (assay buffer plus 10 μM coelenterazine) were prepared on the day of the assay. Assays were performed by aspirating media from the assay plate and washing once with assay buffer, then replacing with loading buffer and allowing the cells to incubate for 1.5 h at room temperature. Compounds were prepared in assay buffer at a 3× final concentration in non-binding plates. Compounds were added to the cell plates and incubated for 30 min at room temperature. The prostanoid receptor ligand PGE2 was prepared at a 4× dilution ratio for a final concentration of 10 nM. Plates were run on a Flexstation™ using a 100 ms integration luminescence protocol for a total of 60 sec with ligand addition at 15 sec. Data were obtained from relative light units as measured by area under the curve.

[2] = molecular target: T1, EP4 (Homo sapiens, UniProt P35408); test: Functional calcium flux assay, EP4; format: cell-based; settings: stably transfected HEK293 cells; PGE2 10 nM; read-out: EP4 Ca2+-flux assay IC50
T1 construct: host or cells: stably transfected HEK293 cells co-expressing a promiscuous G protein and a clytin variant
T1 sequence (P35408 whole entry): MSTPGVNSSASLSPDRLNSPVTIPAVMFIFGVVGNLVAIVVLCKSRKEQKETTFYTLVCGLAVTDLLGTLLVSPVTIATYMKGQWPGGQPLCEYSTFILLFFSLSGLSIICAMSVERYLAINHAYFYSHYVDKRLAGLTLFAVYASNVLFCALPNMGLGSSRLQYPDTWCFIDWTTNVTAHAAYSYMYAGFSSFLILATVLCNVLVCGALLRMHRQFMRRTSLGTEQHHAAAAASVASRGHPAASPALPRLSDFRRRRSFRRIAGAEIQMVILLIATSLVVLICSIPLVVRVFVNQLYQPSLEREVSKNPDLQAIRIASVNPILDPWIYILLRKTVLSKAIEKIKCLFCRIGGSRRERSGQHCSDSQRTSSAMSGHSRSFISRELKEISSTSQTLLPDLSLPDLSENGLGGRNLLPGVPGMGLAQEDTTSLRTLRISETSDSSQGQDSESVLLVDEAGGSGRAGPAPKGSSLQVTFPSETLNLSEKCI

EP2, sequence (P43116 whole entry): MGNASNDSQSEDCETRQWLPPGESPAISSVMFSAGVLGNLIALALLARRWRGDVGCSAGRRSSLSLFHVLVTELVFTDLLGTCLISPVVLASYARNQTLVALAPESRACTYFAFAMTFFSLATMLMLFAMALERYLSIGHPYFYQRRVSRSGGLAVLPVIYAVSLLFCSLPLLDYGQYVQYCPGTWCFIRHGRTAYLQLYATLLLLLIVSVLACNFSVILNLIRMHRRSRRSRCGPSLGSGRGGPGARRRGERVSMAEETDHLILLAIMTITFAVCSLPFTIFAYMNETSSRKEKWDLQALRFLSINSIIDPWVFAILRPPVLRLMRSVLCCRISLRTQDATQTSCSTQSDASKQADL

IC50 [1]	IC50 [2]	SMILES
< 25 nM	< 1 nM	CC(C)(C)c1ccc(Cn2ccc3c(Cl)ccc(C(=O)NC4CC5(C4)CC(C(=O)O)C5)c32)cc1 (racemic) [Example 7, (racemic)-6-(1-(4-(tert-Butyl)benzyl)-4-chloro-1H-indole-7-carboxamido)spiro[3.3]heptane-2-carboxylic acid]
34 nM	< 1 nM	COc1ccccc1-c1ccc(Cn2ccc3c(F)ccc(C(=O)NC4CC5(C4)CC(C(=O)O)C5)c32)cc1 (racemic) [Example 18, (racemic)-6-(4-fluoro-1-((2′-methoxy-[1,1′-biphenyl]-4-yl)methyl)-1H-indole-7-carboxamido)spiro[3.3]heptane-2-carboxylic acid]
60 nM	1 nM	O=C(NC1CC2(C1)CC(C(=O)O)C2)c1ccc(F)c2ccn(Cc3ccc(-c4ccc(OC5COC5)cc4)cc3)c12 (racemic) [Example 23, (racemic)-6-(4-Fluoro-1-((4′-(oxetan-3-yloxy)-[1,1′-biphenyl]-4-yl)methyl)-1H-indole-7-carboxamido)spiro[3.3]heptane-2-carboxylic acid]
61 nM	< 1 nM	COc1cccc(-c2ccc(Cn3ccc4c(F)ccc(C(=O)NC5CC6(CC(CC(=O)O)C6)C5)c43)cc2)n1 (stereo not drawn) [Example 150, (Ra)-2-(6-(4-fluoro-1-(4-(6-methoxypyridin-2-yl)benzyl)-1H-indole-7-carboxamido)spiro[3.3]heptan-2-yl)acetic acid]
94 nM	< 1 nM	O=C(NC1CC2(C1)CC(C(=O)O)C2)c1ccc(Cl)c2ccn(Cc3ccc(N4CCOCC4)cc3)c12 (stereo not drawn) [Example 71, (Sa)-6-(4-Chloro-1-(4-morpholinobenzyl)-1H-indole-7-carboxamido)spiro[3.3]heptane-2-carboxylic acid]
43 nM	3 nM	O=C(NC1CC2(C1)CC(C(=O)O)C2)c1ccc(F)c2ccn(Cc3ccc(-c4ccccc4)c(F)c3)c12 (stereo not drawn) [Example 65, (Sa)-6-(4-Fluoro-1-((2-fluoro-[1,1′-biphenyl]-4-yl)methyl)-1H-indole-7-carboxamido)spiro[3.3]heptane-2-carboxylic acid]
99 nM	4.4 nM	COc1cc(-c2ccc(Cn3ncc4c(Cl)ccc(C(=O)NC5CC6(C5)CC(C(=O)O)C6)c43)cc2)ccn1 (stereo not drawn) [Example 78, (Sa)-6-(4-Chloro-1-(4-(2-methoxypyridin-4-yl)benzyl)-1H-indazole-7-carboxamido)spiro[3.3]heptane-2-carboxylic acid]
< 25 nM	< 1 nM	COc1ccc(-c2ccc(Cn3ccc4c(F)ccc(C(=O)NC5CC6(C5)CC(C(=O)O)C6)c43)cc2)cc1F (racemic) [Example 16, (racemic)-6-(4-fluoro-1-((3′-fluoro-4′-methoxy-[1,1′-biphenyl]-4-yl)methyl)-1H-indole-7-carboxamido)spiro[3.3]heptane-2-carboxylic acid]
< 25 nM	< 1 nM	CCOc1cccc(-c2ccc(Cn3ncc4c(Cl)ccc(C(=O)NC5CC6(C5)CC(C(=O)O)C6)c43)cc2)n1 (stereo not drawn) [Example 83, (Sa)-6-(4-Chloro-1-(4-(6-ethoxypyridin-2-yl)benzyl)-1H-indazole-7-carboxamido)spiro[3.3]heptane-2-carboxylic acid]
< 25 nM	< 1 nM	[2H]C([2H])([2H])Oc1cccc(-c2ccc(Cn3ccc4c(F)ccc(C(=O)NC5CC6(C5)CC(C(=O)O)C6)c43)cc2)c1 (stereo not drawn) [Example 52, (Sa)-6-(4-fluoro-1-((3’-methoxy-d3-[1,1′-biphenyl]-4-yl)methy1)-1H-indole-7-carboxamido)spiro[3.3]heptane-2-carboxylic acid]
65 nM	< 1 nM	CCOc1cccc(-c2ccc(C(C)n3ncc4cccc(C(=O)NC5CC6(C5)CC(C(=O)O)C6)c43)cc2)n1 (racemic) [Example 133, (Sa)-6-(1-((racemic)-1-(4-(6-Ethoxypyridin-2-yl)phenyl)-ethyl)-1H-indazole-7-carboxamido)spiro[3.3]heptane-2-carboxylic acid]
43 nM	< 1 nM	CCOc1cccc(-c2ccc(Cn3ccc4c(F)ccc(C(=O)NC5CC6(C5)CC(C(=O)O)C6)c43)cc2)c1 (stereo not drawn) [Example 54, (Sa)-6-(1-((3’-ethoxy-[1,1′-biphenyl]-4-yl)methyl)-4-fluoro-1H-indole-7-carboxamido)spiro[3.3]heptane-2-carboxylic acid]
< 25 nM	< 1 nM	COc1ccc(-c2ccc(Cn3ccc4c(F)ccc(C(=O)NC5CC6(C5)CC(C(=O)O)C6)c43)cc2)cc1Cl (stereo not drawn) [Example 25, (Sa)-6-(1-((3′-Chloro-4′-methoxy-[1,1′-biphenyl]-4-yl)methyl)-4-fluoro-1H-indole-7-carboxamido)spiro[3.3]heptane-2-carboxylic acid]
44 nM	< 1 nM	O=C(NC1CC2(C1)CC(C(=O)O)C2)c1ccc(F)c2ccn(Cc3ccc(N4CCOCC4)cc3)c12 (racemic) [Example 31, (racemic)-6-(4-Fluoro-1-(4-morpholinobenzyl)-1H-indole-7-carboxamido)spiro[3.3]heptane-2-carboxylic acid]
41 nM	3.5 nM	[2H]C([2H])([2H])C([2H])(c1ccc(-c2ccccc2)cc1)n1ncc2c(Cl)ccc(C(=O)NC3CC4(C3)CC(C(=O)O)C4)c21 (single isomer, unassigned) [Example 167, (Sa)-6-(1-((R) or (S)-1-([1,1′-Biphenyl]-4-yl)ethyl-1,2,2,2-d4)-4-chloro-1H-indazole-7-carboxamido)spiro[3.3]heptane-2-carboxylic acid]
< 25 nM	3 nM	O=C(NC1CC2(C1)CC(C(=O)O)C2)c1cccc2cnn(Cc3ccc(-c4ccccc4)cc3)c12 (racemic) [Example 33, (racemic)-6-(1-([1,1′-biphenyl]-4-ylmethyl)-1H-indazole-7-carboxamido)spiro[3.3]heptane-2-carboxylic acid]
< 25 nM	6.6 nM	CC(c1ccc(-c2ccccc2)cc1)n1ncc2c(Cl)ccc(C(=O)NC3CC4(C3)CC(C(=O)O)C4)c21 (racemic) [Example 121, (Sa)-6-(1-((racemic)-1-([1,1′-biphenyl]-4-yl)-ethyl)-4-chloro-1H-indazole-7-carboxamido)spiro[3.3]heptane-2-carboxylic acid]
33 nM	< 1 nM	O=C(O)CC1CC2(C1)CC(NC(=O)c1cc(F)cc3cnn(Cc4ccc(-c5ccccc5)cc4)c13)C2 (racemic) [Example 107, (racemic)-2-(6-(1-([1,1′-biphenyl]-4-ylmethyl)-5-fluoro-1H-indazole-7-carboxamido)spiro[3.3]heptan-2-yl)acetic acid]
< 25 nM	< 1 nM	COc1cccc(-c2ccc(Cn3ccc4c(F)ccc(C(=O)NC5CC6(C5)CC(C(=O)O)C6)c43)cc2)c1 (racemic) [Example 14, (racemic)-6-(4-fluoro-1-((3′-methoxy-[1,1′-biphenyl]-4-yl)methyl)-1H-indole-7-carboxamido)spiro[3.3]heptane-2-carboxylic acid]
< 25 nM	1.8 nM	CC(c1ccc(-c2ccccc2)cc1)n1ncc2cccc(C(=O)NC3CC4(C3)CC(C(=O)O)C4)c21 (racemic) [Example 112, (Sa)-6-(1-((racemic)-1-([1,1′-Biphenyl]-4-yl)-ethyl)-1H-indazole-7-carboxamido)spiro[3.3]heptane-2-carboxylic acid]
76 nM	< 1 nM	CCOc1cccc(-c2ccc(Cn3ccc4c(F)ccc(C(=O)NC5CC6(C5)CC(C(=O)O)C6)c43)cc2)n1 (stereo not drawn) [Example 56, (Sa)-6-(1-(4-(6-Ethoxypyridin-2-yl)benzyl)-4-fluoro-1H-indole-7-carboxamido)spiro[3.3]heptane-2-carboxylic acid]
81 nM	8.9 nM	CNC(=O)c1cc(-c2ccc(Cn3ncc4c(Cl)ccc(C(=O)NC5CC6(C5)CC(F)(C(=O)O)C6)c43)cc2)ccn1 (racemic) [Example 102, (racemic)-6-(4-chloro-1-(4-(2-(methylcarbamoyl)pyridin-4-yl)benzyl)-1H-indazole-7-carboxamido)-2-fluorospiro[3.3]heptane-2-carboxylic acid]
< 25 nM	< 1 nM	COc1cc(-c2ccc(Cn3ccc4c(F)ccc(C(=O)NC5CC6(C5)CC(C(=O)O)C6)c43)cc2)ccc1F (racemic) [Example 19, (racemic)-6-(4-fluoro-1-((4′-fluoro-3′-methoxy-[1,1′-biphenyl]-4-yl)methyl)-1H-indole-7-carboxamido)spiro[3.3]heptane-2-carboxylic acid]
< 25 nM	< 1 nM	COc1cccc(-c2ccc(Cn3ccc4c(OC)ncc(C(=O)NC5CC6(C5)CC(C(=O)O)C6)c43)cc2)n1 (stereo not drawn) [Example 92, (Sa)-6-(4-Methoxy-1-(4-(6-methoxypyridin-2-yl)benzyl)-1H-pyrrolo[3,2-c]pyridine-7-carboxamido)spiro[3.3]heptane-2-carboxylic acid]
< 25 nM	< 1 nM	N#Cc1cccc(-c2ccc(Cn3ccc4c(F)ccc(C(=O)NC5CC6(C5)CC(C(=O)O)C6)c43)cc2)c1 (racemic) [Example 15, (racemic)-6-(1-((3′-cyano-[1,1′-biphenyl]-4-yl)methyl)-4-fluoro-1H-indole-7-carboxamido)spiro[3.3]heptane-2-carboxylic acid]
< 25 nM	2.9 nM	O=C(NC1CC2(C1)CC(C(=O)O)C2)c1ccc(Cl)c2cnn(C3(c4ccc(-c5ccccc5)cc4)COC3)c12 (stereo not drawn) [Example 176, (Sa)-6-(1-(3-([1,1′-Biphenyl]-4-yl)oxetan-3-yl)-4-chloro-1H-indazole-7-carboxamido)spiro[3.3]heptane-2-carboxylic acid]
45 nM	< 1 nM	CC(C)(C)c1ccc(Cn2ccc3c(C#N)ccc(C(=O)NC4CC5(C4)CC(C(=O)O)C5)c32)cc1 (racemic) [Example 27, (racemic)-6-(1-(4-(tert-Butyl)benzyl)-4-cyano-1H-indole-7-carboxamido)spiro[3.3]heptane-2-carboxylic acid]
